Laboratory results taken from patent US10780074B2, “Compounds and uses thereof” (Sunovion Pharmaceuticals Inc., priority 2017, dated 2020).
Counter-ions that a name gives are not always drawn.

Test system: behaviors of compound-treated mice
Assay: Neuropharmacological Assay (SmartCube)
Assay type: in vivo
Conditions: Mus musculus, ip, 0.25 h, dose having 50% or more total activity in SmartCube, i.p., read-out: MED (minimal effective dose)
Procedure, shortened: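 Mice dosed i.p. 15 min before testing, with compound in N-methyl-2-pyrrolidone/PEG/propylene glycol, were video-recorded and algorithmically compared with reference-drug behavioral signatures. This gave class-match probabilities (antidepressant, anxiolytic, etc.) at the most efficacious of 3 doses. MED was defined as the dose with ≥50% total activity, usually tested across 0.3–30 mpk.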

SMILES	minimal effective dose
CNC[C@H]1OCCc2c(-c3cn[nH]c3)cccc21 [Compound 119, (S)-1-(5-(1H-pyrazol-4-yl)isochroman-1-yl)-N-methylmethanamine hydrochloride salt]	≤ 3 mg/kg
CNC[C@@H]1OCCc2c(-c3cc(C)nc(C)c3)cccc21 [Compound 124, (R)-1-(5-(2,6-dimethylpyridin-4-yl)isochroman-1-yl)-N-methylmethanamine dihydrochloride]	10 to 30 mg/kg
CNC[C@H]1OCCc2c(-c3cc(C)nc(C)c3)cccc21 [Compound 125, (S)-1-(5-(2,6-dimethylpyridin-4-yl)isochroman-1-yl)-N-methylmethanamine dihydrochloride]	≤ 3 mg/kg
Cc1cc(-c2cccc3c2CCO[C@H]3CN)cc(C)n1 [Compound 126, dihydrochloride]	10 to 30 mg/kg
Cc1cc(-c2cccc3c2CCO[C@@H]3CN)cc(C)n1 [Compound 127, dihydrochloride]	10 to 30 mg/kg
NC[C@@H]1OCCCc2c(-c3ccccn3)cccc21 [Compound 158, (R)-(6-(pyridin-2-yl)-1,3,4,5-tetrahydrobenzo[c]oxepin-1-yl)methanamine hydrochloride salt]	10 to 30 mg/kg
NC[C@H]1OCCCc2c(-c3ccccn3)cccc21 [Compound 159, (S)-(6-(pyridin-2-yl)-1,3,4,5-tetrahydrobenzo[c]oxepin-1-yl)methanamine hydrochloride salt]	10 to 30 mg/kg

Same assay, conditions: Mus musculus, ip, 0.25 h, dose having 50% or more total activity in SmartCube, read-out: MED (minimal effective dose)

SMILES	minimal effective dose
CNC[C@H]1OCCc2c1cccc2-n1ccnc1 [Compound 183, (S)-1-(5-(1H-Imidazol-1-yl)isochroman-1-yl)-N-methylmethanamine hydrochloride salt]	3 to 10 mg/kg
NC[C@@H]1OCCc2c1cccc2-n1ccnc1 [Compound 184, (R)-(5-(1H-Imidazol-1-yl)isochroman-1-yl)methanamine hydrochloride salt]	10 to 30 mg/kg
NC[C@H]1OCCc2c1cccc2-n1ccnc1 [Compound 185, (S)-(5-(1H-Imidazol-1-yl)isochroman-1-yl)methanamine hydrochloride salt]	10 to 30 mg/kg
CNC[C@@H]1OCCc2c1cccc2-n1cccn1 [Compound 186, (R)-1-(5-(1H-pyrazol-1-yl)isochroman-1-yl)-N-methylmethanamine]	10 to 30 mg/kg
CNC[C@H]1OCCc2c1cccc2-n1cccn1 [Compound 187, (S)-1-(5-(1H-pyrazol-1-yl)isochroman-1-yl)-N-methylmethanamine]	3 to 10 mg/kg
NC[C@@H]1OCCc2c1cccc2-n1cccn1 [Compound 188, (R)-(5-(1H-pyrazol-1-yl)isochroman-1-yl)methanamine hydrochloride salt]	10 to 30 mg/kg

Same assay, conditions: SmartCube, i.p. 15 min before test, most efficacious dose(s)

SMILES	AD: ADHD (probability that activity matches class)	AG: analgesic (probability that activity matches class)	AX: anxiolytic (probability that activity matches class)	CE: cognitive enhancer (probability that activity matches class)	DP: anti-depressant (probability that activity matches class)	MS: mood stabilizer (probability that activity matches class)	PS: anti-psychotic (probability that activity matches class)	SD: sedative hypnotic (probability that activity matches class)	UN: uncharacterized CNS activity (probability that activity matches class)
CNC[C@H]1OCCc2c1cccc2-n1ccnc1 [Compound 183, (S)-1-(5-(1H-Imidazol-1-yl)isochroman-1-yl)-N-methylmethanamine hydrochloride salt]	+ (LOQ ≤ + <5%)	+ (LOQ ≤ + <5%)	+ (LOQ ≤ + <5%)	+ (LOQ ≤ + <5%)	++++ (50% ≤ ++++)	+ (LOQ ≤ + <5%)	+ (LOQ ≤ + <5%)	+ (LOQ ≤ + <5%)	++ (5% ≤ ++ <25%)
NC[C@@H]1OCCc2c1cccc2-n1ccnc1 [Compound 184, (R)-(5-(1H-Imidazol-1-yl)isochroman-1-yl)methanamine hydrochloride salt]	+ (LOQ ≤ + <5%)	+ (LOQ ≤ + <5%)	++ (5% ≤ ++ <25%)	+ (LOQ ≤ + <5%)	+ (LOQ ≤ + <5%)	+ (LOQ ≤ + <5%)	+ (LOQ ≤ + <5%)	+ (LOQ ≤ + <5%)	+ (LOQ ≤ + <5%)
NC[C@H]1OCCc2c1cccc2-n1ccnc1 [Compound 185, (S)-(5-(1H-Imidazol-1-yl)isochroman-1-yl)methanamine hydrochloride salt]	+ (LOQ ≤ + <5%)	+ (LOQ ≤ + <5%)	++ (5% ≤ ++ <25%)	+ (LOQ ≤ + <5%)	++ (5% ≤ ++ <25%)	+ (LOQ ≤ + <5%)	+ (LOQ ≤ + <5%)	+ (LOQ ≤ + <5%)	+ (LOQ ≤ + <5%)
CNC[C@@H]1OCCc2c1cccc2-n1cccn1 [Compound 186, (R)-1-(5-(1H-pyrazol-1-yl)isochroman-1-yl)-N-methylmethanamine]	+ (LOQ ≤ + <5%)	+ (LOQ ≤ + <5%)	++ (5% ≤ ++ <25%)	+ (LOQ ≤ + <5%)	+ (LOQ ≤ + <5%)	+ (LOQ ≤ + <5%)	+ (LOQ ≤ + <5%)	+ (LOQ ≤ + <5%)	+ (LOQ ≤ + <5%)
CNC[C@H]1OCCc2c1cccc2-n1cccn1 [Compound 187, (S)-1-(5-(1H-pyrazol-1-yl)isochroman-1-yl)-N-methylmethanamine]	++ (5% ≤ ++ <25%)	+ (LOQ ≤ + <5%)	+ (LOQ ≤ + <5%)	+ (LOQ ≤ + <5%)	++++ (50% ≤ ++++)	+ (LOQ ≤ + <5%)	+ (LOQ ≤ + <5%)	+ (LOQ ≤ + <5%)	+ (LOQ ≤ + <5%)
NC[C@@H]1OCCc2c1cccc2-n1cccn1 [Compound 188, (R)-(5-(1H-pyrazol-1-yl)isochroman-1-yl)methanamine hydrochloride salt]	++ (5% ≤ ++ <25%)	+ (LOQ ≤ + <5%)	++ (5% ≤ ++ <25%)	+ (LOQ ≤ + <5%)	+ (LOQ ≤ + <5%)	+ (LOQ ≤ + <5%)	+ (LOQ ≤ + <5%)	+ (LOQ ≤ + <5%)	++++ (50% ≤ ++++)

Same assay, conditions: i.p. 15 min before behavioral test, most efficacious dose(s) of 3 doses

SMILES	AD: ADHD (probability that activity matches class)	AG: analgesic (probability that activity matches class)	AX: anxiolytic (probability that activity matches class)	CE: cognitive enhancer (probability that activity matches class)	DP: anti-depressant (probability that activity matches class)	MS: mood stabilizer (probability that activity matches class)	PS: anti-psychotic (probability that activity matches class)	SD: sedative hypnotic (probability that activity matches class)	UN: uncharacterized CNS activity (probability that activity matches class)
CNC[C@H]1OCCc2c(-c3cn[nH]c3)cccc21 [Compound 119, (S)-1-(5-(1H-pyrazol-4-yl)isochroman-1-yl)-N-methylmethanamine hydrochloride salt]	++ (5% ≤ ++ <25%)	+ (LOQ ≤ + <5%)	++ (5% ≤ ++ <25%)	+ (LOQ ≤ + <5%)	++++ (50% ≤ ++++)	+ (LOQ ≤ + <5%)	+ (LOQ ≤ + <5%)	++ (5% ≤ ++ <25%)	+ (LOQ ≤ + <5%)
CNC[C@@H]1OCCc2c(-c3cc(C)nc(C)c3)cccc21 [Compound 124, (R)-1-(5-(2,6-dimethylpyridin-4-yl)isochroman-1-yl)-N-methylmethanamine dihydrochloride]	+ (LOQ ≤ + <5%)	+ (LOQ ≤ + <5%)	+ (LOQ ≤ + <5%)	+ (LOQ ≤ + <5%)	+ (LOQ ≤ + <5%)	+ (LOQ ≤ + <5%)	+ (LOQ ≤ + <5%)	+ (LOQ ≤ + <5%)	+ (LOQ ≤ + <5%)
CNC[C@H]1OCCc2c(-c3cc(C)nc(C)c3)cccc21 [Compound 125, (S)-1-(5-(2,6-dimethylpyridin-4-yl)isochroman-1-yl)-N-methylmethanamine dihydrochloride]	+ (LOQ ≤ + <5%)	+ (LOQ ≤ + <5%)	+ (LOQ ≤ + <5%)	+ (LOQ ≤ + <5%)	++++ (50% ≤ ++++)	+ (LOQ ≤ + <5%)	+ (LOQ ≤ + <5%)	+ (LOQ ≤ + <5%)	++++ (50% ≤ ++++)
Cc1cc(-c2cccc3c2CCO[C@H]3CN)cc(C)n1 [Compound 126, dihydrochloride]	+ (LOQ ≤ + <5%)	+ (LOQ ≤ + <5%)	+ (LOQ ≤ + <5%)	+ (LOQ ≤ + <5%)	+ (LOQ ≤ + <5%)	+ (LOQ ≤ + <5%)	+ (LOQ ≤ + <5%)	+ (LOQ ≤ + <5%)	+ (LOQ ≤ + <5%)
Cc1cc(-c2cccc3c2CCO[C@@H]3CN)cc(C)n1 [Compound 127, dihydrochloride]	+ (LOQ ≤ + <5%)	+ (LOQ ≤ + <5%)	+ (LOQ ≤ + <5%)	+ (LOQ ≤ + <5%)	++ (5% ≤ ++ <25%)	+ (LOQ ≤ + <5%)	+ (LOQ ≤ + <5%)	+ (LOQ ≤ + <5%)	+ (LOQ ≤ + <5%)
NC[C@@H]1OCCCc2c(-c3ccccn3)cccc21 [Compound 158, (R)-(6-(pyridin-2-yl)-1,3,4,5-tetrahydrobenzo[c]oxepin-1-yl)methanamine hydrochloride salt]	+ (LOQ ≤ + <5%)	+ (LOQ ≤ + <5%)	++ (5% ≤ ++ <25%)	+ (LOQ ≤ + <5%)	+ (LOQ ≤ + <5%)	+ (LOQ ≤ + <5%)	+ (LOQ ≤ + <5%)	+ (LOQ ≤ + <5%)	+ (LOQ ≤ + <5%)
NC[C@H]1OCCCc2c(-c3ccccn3)cccc21 [Compound 159, (S)-(6-(pyridin-2-yl)-1,3,4,5-tetrahydrobenzo[c]oxepin-1-yl)methanamine hydrochloride salt]	+ (LOQ ≤ + <5%)	+ (LOQ ≤ + <5%)	+ (LOQ ≤ + <5%)	+ (LOQ ≤ + <5%)	+ (LOQ ≤ + <5%)	+ (LOQ ≤ + <5%)	+ (LOQ ≤ + <5%)	+ (LOQ ≤ + <5%)	+ (LOQ ≤ + <5%)
